For data set [1] the following is noted: cited from earlier work.
The subject of data set [2] is formalin-induced pain behavior. The data set is described as follows: Formalin test (1% formalin, hind paw shakes) with isobologram analysis. The class given is in vivo. The following applies: IM, rat; for dose giving maximal antinociception effect: both phases of the formalin test; for dose reaching a significant difference in % antinociception: phase 2 of the formalin test; for ED30 (dose delivering 30% of the maximal effect): single drug, 60 min before formalin, % antinociception. The text has this: Male Wistar rats aged 7-8 weeks weighting 175-199 g were used in the experiments. Rats had free access to food and water before the experiments. All experimental procedures complied with the Guidelines on Ethical Standards for investigations of Experimental Pain in Animals (IASP, 1983). Each rat was used only once and was sacrificed in a CO2-saturated glass bell. The formalin model is used mainly with rodents. The test consists in the subcutaneous administration of formalin (formaldehyde in concentrations ranging from 1 to 5%), in a 20-25 μL volume for mice 30-100 μL for rats. The injection is usually administered in the dorsal surface of the right hind paw, and animals are sacrificed once the test is finished. The formalin test describes several behaviors, such as biting, licking and shaking the injected hind paw. Hind paw shaking is the most used parameter for quantifying the degree of pain. The formalin test in rodents is biphasic. […] The second phase (tonic or inflammatory) onsets 15-20 minutes after the injection and lasts 20-40 minutes. The 1%-formalin injection induced the typical shaking behavior, characterized by a brisk withdrawal or bending of the injected hind paw. The temporal course was assessed in this figure after the 1%-formalin injection, and the biphasic (phase 1 and 2) behavior characterizing this model was observed. An isobologram analysis was employed to assess aceclofenac and betamethasone interactions. […] When connecting the dots an additivity line is obtained, useful to establish the type of interaction of both compounds under study. Dose-response curves (DRC) are constructed to obtain the ED30's of each active principle. At least 4 doses of each active principle are administered by IM injection to at least 6 animals. […] Before the test, the drugs were diluted and mixed for intramuscular administration. […] This dose was statistically compared to the dose that theoretically is the simple addition of effects, and which can be obtained with the following formula: […] Where R is the potency ratio of drugs 1 and 2 administered alone; P1 is the proportion of drug 1 in the mixture; P2 is the proportion of drug 2 in the mixture. […] The interaction type is determined by the graph region where the experimental value is located in relation to the theoretical value. If the value lies below the additivity line and is statistically different from the theoretical value, then the interaction is synergic (an effect greater than the sum of effects of each drug); if the value lies near the additivity line and is not statistically different from the theoretical value, then the interaction is only additive (an effect equal to the sum of effects of each drug). If the value lies […] and is statistically different from the theoretical value, then the interaction is subadditive or antagonistic. A software calculates the interaction index (I.I.) of two drugs, obtained with the following formula: I.I.=Experimental ED30/theoretical ED30 If the index is less than 1.0, then the interaction is synergic; if it is equal to 1.0, the interaction is additive, and if it is greater than 1.0, the interaction is antagonistic. For twelve hours before the experimental preclinical phase, rats fasted but had free access to water. […] The results are expressed as the average±standard error (SE) of at least 6 rats per group. The number of hind paw shakes/minute was graphed vs. time. The area under the curve (AUC) of temporal courses is a global expression of the effect intensity and duration, and was calculated with the trapezoid method. The antinoception percentage (%) was calculated with the following formula: % Antinociception=((Vehicle-Compound)/Vehicle)×100. The AUC's and % antinociception were evaluated by means of an analysis of variance (ANOVA) and a Tukey's test. Results with P<0.05 were considered statistically significant.

The text below walks through data of US20220062300A1 (priority 2019, published 2022).

Consider `C[C@H]1C[C@H]2[C@@H]3CCC4=CC(=O)C=C[C@]4(C)[C@@]3(F)[C@@H](O)C[C@]2(C)[C@@]1(O)C(=O)CO` [Betamethasone, (11β,16β)-9-Fluoro-11,17,21-trihydroxy-16-methylpregna-1,4-diene-3,20-dione], for which the solubility in water result in data set [1] is listed as “insoluble in water”. In data set [2], the “dose giving maximal antinociception effect” value worked out at 31.6 mg/kg; the “dose reaching a significant difference in % antinociception” value is 17.7 mg/kg; the “number of shakes in phase 2 of the formalin test, expressed as % antinociception” value is “decreased in a dose-dependent way”; the “ED30 (dose delivering 30% of the maximal effect)” value was determined as 13.4722 mg/kg. Moreover, the “ED30 (dose delivering 30% of the maximal effect)” value in data set [2] (listed as betamethasone) turned out to be 13.472 mg/kg.
In the case of `O=C(O)COC(=O)Cc1ccccc1Nc1c(Cl)cccc1Cl` [Aceclofenac, [(2-{2,6-dichlorophenyl)amino}phenylacetooxyacetic acid]], in data set [2], the “dose giving maximal antinociception effect” value was determined as 31.6 mg/kg; the “dose reaching a significant difference in % antinociception” value is 17.7 mg/kg; the “number of shakes in phase 2 of the formalin test, expressed as % antinociception” value is “decreased in a dose-dependent way”; the “ED30 (dose delivering 30% of the maximal effect)” value was determined as 1.8662 mg/kg. Besides, the “ED30 (dose delivering 30% of the maximal effect)” value in data set [2] (listed as aceclofenac) is 13.472 mg/kg.
